Results published in patent US4496551A (priority 1983, dated 1985).

Tests used:
Format in all cases: in vivo
[1] = system: Pythium aphanadermatum; assay: Pythium control on coated cotton seeds; conditions: 168 h; for pest or weed control at 2000 mg/kg: 2 gm/kg seed, 1 week
Source text: Several compounds of the previous examples were incorporated into a proprietary formulation and used to coat cotton seeds at a rate of 2 gm/kg seed. After being thoroughly coated, the seeds were allowed to air dry at room temperature. The cotton seeds were then planted into soil amended with the fungus Pythium aphanadermatum, sand, and corn meal at a rate sufficient to kill most untreated seeds. The seeds were held at room temperature for 1 week, after which time disease ratings were made.

[2] = system: Erysiphe cichoracearum; assay: cucumber powdery mildew control on cucumber seedlings; conditions: Golovinomyces cichoracearum, 168 h, 7 days
Description: (§1) Compounds of the previous examples were again dissolved in acetone in an amount equal to 6% of the final volume and then suspended at a concentration of 100 ppm in purified water containing 250 ppm of the surfactant TREM 014 (polyhydric alcohol esters). This suspension was sprayed to the point of run-off on cucumber seedlings. The following day, the plants were inoculated with a spore suspension of the fungus Erysiphe cichoracearum, causal agent of cucumber powdery mildew, and incubated in a growth room for 7 days. Disease ratings were then made. Treated plants from successful treatments had little or no powdery mildew in contrast to untreated plants which were covered with powdery mildew.

[3] = system: Puccinia recondita var. tritici; assay: wheat leaf rust control on wheat seedlings; conditions: 100 ppm, sprayed day before inoculation
Description: (§2) Compounds of this invention were dissolved in acetone in an amount equal to 6% of the final volume and then suspended at a concentration of 100 ppm in purified water containing 250 ppm of the surfactant TREM 014 (polyhydric alcohol esters). This suspension was sprayed to the point of run-off on wheat seedlings. The following day, the plants were inoculated with a spore suspension of Puccinia recondita var. tritici, causal agent of wheat leaf rust, and incubated in a saturated humidity chamber at 20° for 24 hours and then in a growth room for an additional 7 days, when disease ratings were made. Treated plants from successful treatments had few or no rust pustules while the untreated plants had numerous rust pustules on each leaf.

[4] = system: Helminthosporium maydis; assay: southern corn leaf blight control on corn seedlings; conditions: Bipolaris maydis, 168 h
Description: Compounds of the previous example were again dissolved in acetone in an amount equal to 6% of the final volume and then suspended at a concentration of 100 ppm in purified water containing 250 ppm of the surfactant TREM 014 (polyhydric alcohol esters). This suspension was sprayed to the point of run-off on corn seedlings. The following day, the plants were inoculated with a spore suspension of Helminthosporium maydis, causal agent of southern corn leaf blight, and incubated in a saturated humidity chamber at 20° for 24 hours and then in a growth room for an additional 7 days, when disease ratings were made. Treated plants from successful treatments had few lesions while the untreated plants had numerous lesions on each leaf.

[5] = system: Pythium aphanadermatum; assay: Pythium control on coated corn seeds; conditions: 504 h, 2 gm/kg seed, 49° F. 2 weeks then 70° F. 1 week
Description: Several compounds of the previous examples were incorporated into a proprietary formulation and used to coat corn seeds at a rate of 2 gm/kg seed. After being thoroughly coated, the seeds were allowed to air dry at room temperature. The seeds were then planted into soil amended with a mixture of the fungus Pythium aphanadermatum, sand, and corn meal at a rate sufficient to kill most untreated seeds. The seeds were held at 49° F. for 2 weeks and then at 70° F. for 1 additional week. After this time disease ratings were made.

[6] = system: Rhizoctonia solani; assay: rice sheath blight control on rice seedlings; conditions: Rhizoctonia solani, 168 h, 7 days
Description: Several compounds of the previous examples were again dissolved in acetone in an amount equal to 6% of the final volume and then suspended at a concentration of 100 ppm in purified water containing 250 ppm of the surfactant TREM 014 (polyhydric alcohol esters). This suspension was sprayed to the point of run-off on rice seedlings. The following day, the plants were inoculated with a mixture of bran and the mycelium of Rhizoctonia solani, causal agent of sheath blight of rice, and incubated in a growth room for 7 days. Disease ratings were then made. Treated plants from successful treatments had little sheath blight in contrast to untreated plants which were covered with sheath blight.

[7] = system: Phytophthora infestans; assay: whole plant or invertebrate; conditions: Phytophthora infestans, in Solanum lycopersicum, 168 h, read-out: % Control of Tomato Late Blight
[8] = system: Pyricularia oryzae; assay: whole plant or invertebrate; conditions: 168 h, read-out: % Control of Rice Blast
[9] = system: Cercospora arachidicola; assay: peanut early leafspot control on peanut seedlings; conditions: Mycosphaerella arachidis, 336 h
Description: Compounds of the previous examples were again dissolved in acetone in an amount equal to 6% of the final volume and then suspended at a concentration of 100 ppm in purified water containing 250 ppm of the surfactant TREM 014 (polyhydric alcohol esters). This suspension was sprayed to the point of run-off on peanut seedlings. The following day, the plants were inoculated with a spore suspension of Cercospora arachidicola, causal agent of peanut early leafspot, and incubated in a saturated humidity chamber at 27° for 24 hours and then in a growth room for an additional 14 days, when disease ratings were made. Treated plants from successful treatments had few or no leafspots while the untreated plants had numerous leafspots on each leaf.

[10] = system: Venturia inaequalis; assay: apple scab control on apple seedlings; conditions: Venturia inaequalis; 100 ppm
Description: as §2, with “apple” for “wheat”, “the fungus Venturia inaequalis,” for “Puccinia recondita var. tritici,”, “apple scab,” for “wheat leaf rust,”, “10-12 days.” for “7 days, when disease ratings were made.”, “apple scab lesions when compared to” for “rust pustules while the”, “which were covered with scab lesions.” for “had numerous rust pustules on each leaf.”

[11] = system: cucumber seedlings; assay: phytotoxicity on cucumber seedlings; set-up: key: G: growth reduction; H: hormonal effects; conditions: 100 ppm
[12] = system: Erysiphe graminis; assay: barley powdery mildew control on barley seedlings; conditions: Blumeria graminis, 168 h; 100 ppm, 7 days
Description: as §1, with “Several compounds” for “Compounds”, “barley” for “cucumber”, “graminis,” for “cichoracearum,”, “plants” for “plants from successful treatments”

Structure (SMILES) | pest or weed control at 2000 mg/kg [1] [%] | pest or weed control at 100 ppm [2] [%] | pest or weed control at 100 ppm [3] [%] | pest or weed control at 100 ppm [4] [%] | pest or weed control at 2000 mg/kg [5] [%] | pest or weed control at 100 ppm [6] [%] | pest or weed control at 100 ppm [7] [%] | pest or weed control at 100 ppm [8] [%] | pest or weed control at 100 ppm [9] [%] | pest or weed control at 100 ppm [10] [%] | Phytotoxicity (growth reduction or hormonal effects) [11] | pest or weed control at 100 ppm [12] [%] | pest or weed control at 500 mg/kg ([1]; 0.5 gm/kg seed) [%]
CCCC[Si](C)(Cn1ccnc1)c1ccc(-c2ccccc2)cc1 (stereo not shown) [(1,1'-Biphenyl-4-yl)butyl(1H-imidazol-1-ylmethyl)methylsilane] | 0 | 100 | 100 | 0 | 0 | 90 | 0 | 90 | 90 | 100 | – | – | –
COc1ccccc1[Si](C)(C)Cn1ccnc1 [(1H-Imidazol-1-ylmethyl)(2-methoxyphenyl)dimethylsilane] | – | 100 | 0 | 0 | – | 90 | 0 | 0 | 0 | 60 | G | – | –
C[Si](C)(Cn1ccnc1)c1cccc2ccccc12 [(1H-Imidazol-1-ylmethyl)dimethyl(1-naphthalenyl)silane] | – | 100 | 0 | 0 | 27 | 0 | 0 | 0 | 0 | 40 | – | 0 | –
C[Si](C)(Cn1ccnc1)c1ccccc1C(F)(F)F [(1H-Imidazol-1-ylmethyl)dimethyl(2-trifluoromethylphenyl)silane] | – | 100 | 0 | 90 | – | 80 | 0 | 0 | 0 | 0 | G | – | –
Cc1ccc([Si](C)(C)Cn2ccnc2)cc1 [(1H-Imidazol-1-ylmethyl)dimethyl(4-methylphenyl)silane] | 0 | 100 | 0 | 0 | 30 | 0 | 0 | 0 | 0 | 0 | G | – | –
C[Si](C)(Cn1ccnc1)c1ccccc1Cl [(2-Chlorophenyl)(1H-imidazol-1-ylmethyl)dimethylsilane] | 0 | 100 | 0 | 0 | – | 0 | 0 | 0 | 80 | 90 | – | – | –
C[Si](C)(Cn1ccnc1)c1cc(Cl)cc(Cl)c1 [(3,5-Dichlorophenyl)dimethyl(1H-imidazol-1-ylmethyl)silane] | – | 100 | 0 | 0 | – | 90 | 0 | 0 | 0 | 50 | G | – | –
C[Si](C)(Cn1ccnc1)c1ccc(Cl)cc1 [(4-Chlorophenyl)dimethyl(1H-imidazol-1-ylmethyl)silane] | – | 100 | 50 | 0 | 25 | 0 | 0 | 0 | 0 | 0 | – | – | 18
CCCC[Si](C)(Cn1ccnc1)c1ccc(F)cc1 (stereo not shown) [Butyl(4-fluorophenyl)(1H-imidazol-1-ylmethyl)methylsilane] | 0 | 100 | 0 | 0 | 0 | 80 | 0 | 100 | 0 | 80 | – | – | –
C[Si](C)(Cn1ccnc1)c1cccc(C(F)(F)F)c1 [Dimethyl(1H-imidazol-1-ylmethyl)(3-trifluoromethylphenyl)silane] | 0 | 80 | 0 | 0 | 0 | 0 | 70 | 0 | 50 | 0 | – | – | –
C[Si](C)(Cn1ccnc1)c1ccc(OC(F)(F)F)cc1 [Dimethyl(1H-imidazol-1-ylmethyl)(4-trifluoromethoxyphenyl)silane] | – | 100 | 100 | 0 | – | 0 | 0 | 90 | 90 | 50 | G | – | –
C[Si](Cn1ccnc1)(c1ccc(Cl)cc1)c1ccc(Cl)cc1 [bis(4-Chlorophenyl)(1H-imidazol-1-ylmethyl)methylsilane] | – | 100 | 0 | 60 | – | 0 | 0 | 0 | 0 | 0 | – | 100 | –
